In test [1] the target is T1, human Gcg receptor (Homo sapiens, UniProt P47871).
T1 construct: expressed in transfected cells; crude membranes
The experiment in a line: [125I]-Glucagon binding (SPA), human Gcg receptor. To be noted: read-out: hGLcgR Ki, nM (SEM, n). In short, it runs like this:
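Scintillation counts are taken after membranes and WGA beads incubate and settle for 12 hours at room temperature. Buffer is 25 mM HEPES, pH 7.4, with CaCl2, MgCl2, bacitracin and Tween-20. Ki values, from four-parameter IC50 fits, are geometric means over independent days.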

In test [2] the target is T2, human GIP receptor (Homo sapiens, UniProt P48546).
T2 construct: expressed in transfected cells; crude membranes
T2 sequence (P48546 22-466): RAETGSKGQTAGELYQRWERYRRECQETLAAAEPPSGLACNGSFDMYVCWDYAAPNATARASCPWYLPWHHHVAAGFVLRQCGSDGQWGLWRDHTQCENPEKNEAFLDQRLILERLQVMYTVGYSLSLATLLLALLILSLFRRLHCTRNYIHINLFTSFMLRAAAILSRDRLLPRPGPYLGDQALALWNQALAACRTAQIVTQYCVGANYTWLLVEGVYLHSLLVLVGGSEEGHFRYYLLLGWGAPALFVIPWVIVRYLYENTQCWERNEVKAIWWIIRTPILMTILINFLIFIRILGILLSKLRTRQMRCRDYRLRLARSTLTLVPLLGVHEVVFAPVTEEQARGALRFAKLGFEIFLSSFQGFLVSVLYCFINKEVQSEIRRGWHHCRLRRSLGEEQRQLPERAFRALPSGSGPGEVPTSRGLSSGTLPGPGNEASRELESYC
The experiment in a line: [125I]-GIP binding (SPA), human GIP receptor. To be noted: read-out: hGIPR Ki, nM (SEM, n).

The target in test [3] is human GLP-1 receptor (GLP-1R) (Homo sapiens, UniProt P43220). The experiment in a line: cAMP pharmacological functional assay in presence of casein, hGLP-1R. To be noted: HEK293 cells expressing hGLP-1R, 0.1% Casein, geometric mean; read-out: hGLP1R cAMP Rel EC50 nM (SEM, n). It counts as cell-based.
human GLP-1 receptor (GLP-1R), sequence (P43220 24-463): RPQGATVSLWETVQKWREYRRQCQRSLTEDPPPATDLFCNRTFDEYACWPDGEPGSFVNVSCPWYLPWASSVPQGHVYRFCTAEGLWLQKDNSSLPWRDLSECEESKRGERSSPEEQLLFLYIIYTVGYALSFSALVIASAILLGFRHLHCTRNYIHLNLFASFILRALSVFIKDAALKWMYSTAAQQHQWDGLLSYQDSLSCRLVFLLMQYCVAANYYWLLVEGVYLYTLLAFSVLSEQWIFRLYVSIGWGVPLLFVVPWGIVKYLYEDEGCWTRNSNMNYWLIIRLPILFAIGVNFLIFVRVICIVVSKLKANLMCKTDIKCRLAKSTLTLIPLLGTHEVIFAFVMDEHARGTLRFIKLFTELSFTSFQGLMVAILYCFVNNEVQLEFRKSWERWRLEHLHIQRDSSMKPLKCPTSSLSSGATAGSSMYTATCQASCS
For test [4], the target named is T3, gastric inhibitory peptide receptor (GIPR) (Homo sapiens, UniProt P48546).
T3 sequence (P48546 22-466): T2 sequence (P48546 22-466)
Nature of the test: cAMP pharmacological functional assay in presence of casein, hGIPR. To be noted: HEK293 cells expressing hGIPR, 0.1% Casein, geometric mean; read-out: hGIPR cAMP Rel EC50 nM (SEM, n). The format is cell-based.

Test [5] addresses human GLP-1R (Homo sapiens, UniProt P43220). Nature of the test: [125I]-GLP-1 binding (SPA), human GLP-1 receptor. Also on record: expressed in transfected cells; crude membranes. The note with it: read-out: hGLP1R Ki, (nM) (SEM, n). In short, it runs like this: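 Assay buffer: HEPES 25 mM, pH 7.4, CaCl2 2.5 mM, MgCl2 1 mM, with EDTA-free protease inhibitors. Receptor came from crude cell membranes prepared by homogenization and centrifugation at 4° C. IC50s came from four-parameter fits (maximum, minimum, IC50, Hill slope) and were expressed as Ki geometric means with SEM.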

Numbered stars: 1 amine (or outer) side, 2 acyl side, 3 side chain; on linkers, the order of the positions; unused ones are H or OH. Square brackets hold non-standard residues; d marks the D form. Side chains are listed from the residue outwards. Peptide text beside a SMILES is read from it. * marks the point of attachment. C20 diacid = O=C(O)CCCCCCCCCCCCCCCCCCC(=O)*; αMePhe(2-F) = C[C@](N)(Cc1ccccc1F)C(=O)O; γGlu = O=C(O)[C@H](CCC(=O)[*:2])N[*:1]; αMeF = C[C@](N)(Cc1ccccc1)C(=O)O; αMeL = CC(C)C[C@](C)(N)C(=O)O; AEEA = NCCOCCOCC(=O)O; Aib = CC(C)(N)C(=O)O

human GLP-1R, sequence (P43220 24-463): as above
T1 sequence (P47871 26-477): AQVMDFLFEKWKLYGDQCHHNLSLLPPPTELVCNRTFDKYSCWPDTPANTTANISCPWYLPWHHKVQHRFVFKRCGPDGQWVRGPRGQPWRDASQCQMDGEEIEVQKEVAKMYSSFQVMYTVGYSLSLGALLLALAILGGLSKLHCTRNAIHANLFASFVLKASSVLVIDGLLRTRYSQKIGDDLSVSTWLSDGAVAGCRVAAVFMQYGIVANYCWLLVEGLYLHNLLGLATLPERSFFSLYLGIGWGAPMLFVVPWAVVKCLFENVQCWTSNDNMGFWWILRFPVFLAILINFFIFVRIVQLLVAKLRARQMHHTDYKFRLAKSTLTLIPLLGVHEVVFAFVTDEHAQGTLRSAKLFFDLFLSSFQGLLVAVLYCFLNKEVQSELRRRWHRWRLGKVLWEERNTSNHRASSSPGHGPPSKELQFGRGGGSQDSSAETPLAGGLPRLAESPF

Take `CC[C@H](C)[C@H](NC(=O)[C@H](CC(C)C)NC(=O)[C@H](Cc1ccc(O)cc1)NC(=O)[C@H](CCC(=O)O)NC(=O)[C@@H](NC(=O)[C@H](Cc1ccccc1)NC(=O)[C@H](C)NC(=O)C(C)(C)NC(=O)[C@H](CCC(N)=O)NC(=O)[C@H](C)NC(=O)[C@H](CCCCNC(=O)COCCOCCNC(=O)COCCOCCNC(=O)CC[C@H](NC(=O)CCCCCCCCCCCCCCCCCCC(=O)O)C(=O)O)NC(=O)[C@H](CCCCN)NC(=O)[C@H](CC(=O)O)NC(=O)[C@H](CC(C)C)NC(=O)[C@H](CC(C)C)NC(=O)[C@@H](NC(=O)[C@H](CO)NC(=O)[C@H](Cc1ccc(O)cc1)NC(=O)[C@H](CC(=O)O)NC(=O)[C@H](CO)NC(=O)[C@@H](NC(=O)[C@H](Cc1ccccc1)NC(=O)[C@@H](NC(=O)CNC(=O)CC[C@H](NC(=O)C(C)(C)NC(=O)[C@@H](N)Cc1ccc(O)cc1)C(=O)O)[C@@H](C)O)[C@@H](C)O)[C@@H](C)CC)[C@@H](C)CC)C(=O)N[C@@H](CCC(=O)O)C(=O)NCC(=O)NCC(=O)N1CCC[C@H]1C(=O)N[C@@H](CO)C(=O)N[C@@H](CO)C(=O)NCC(=O)N[C@@H](C)C(=O)N1CCC[C@H]1C(=O)N1CCC[C@H]1C(=O)N1CCC[C@H]1C(=O)N[C@@H](CO)C(N)=O` [Example 91]: the values for the Ki in test [1], in test [2] and in test [5] were 540 nM, 1.8 nM and 5.23 nM, respectively. In addition, the values for the EC50 in test [3] and in test [4] were > 5000 nM and 19.2 nM, respectively.
The corresponding values for `CC[C@H](C)[C@H](NC(=O)[C@H](CCCCN)NC(=O)[C@H](CC(=O)O)NC(=O)[C@H](CCCCNC(=O)COCCOCCNC(=O)COCCOCCNC(=O)CC[C@H](NC(=O)CCCCCCCCCCCCCCCCCCC(=O)O)C(=O)O)NC(=O)[C@H](CC(C)C)NC(=O)[C@@H](NC(=O)[C@H](CO)NC(=O)[C@H](Cc1ccc(O)cc1)NC(=O)[C@H](CC(=O)O)NC(=O)[C@H](CO)NC(=O)[C@@H](NC(=O)[C@](C)(Cc1ccccc1)NC(=O)[C@@H](NC(=O)CNC(=O)[C@H](CCC(=O)O)NC(=O)C(C)(C)NC(=O)[C@@H](N)Cc1ccc(O)cc1)[C@@H](C)O)[C@@H](C)O)[C@@H](C)CC)C(=O)N[C@@H](C)C(=O)N[C@@H](CCC(N)=O)C(=O)NC(C)(C)C(=O)N[C@@H](C)C(=O)N[C@@H](Cc1ccccc1)C(=O)N[C@H](C(=O)N[C@@H](CCC(=O)O)C(=O)N[C@@H](Cc1ccc(O)cc1)C(=O)N[C@@H](CC(C)C)C(=O)N[C@H](C(=O)N[C@@H](CCC(=O)O)C(=O)NCC(=O)NCC(N)=O)[C@@H](C)CC)[C@@H](C)CC` [Example 93] (H-Y[Aib]EGT[αMeF]TSDYSILK([AEEA-AEEA-γGlu-C20 diacid])DKIAQ[Aib]AFIEYLIEGG-NH2) are 15.7 nM, 0.0859 nM, 1.89 nM, 0.115 nM and 0.185 nM.
Taken in the same sequence, the figures for `CC[C@H](C)[C@H](NC(=O)[C@H](CC(C)C)NC(=O)[C@H](Cc1ccc(O)cc1)NC(=O)[C@H](CCC(=O)O)NC(=O)[C@@H](NC(=O)[C@H](Cc1ccccc1)NC(=O)[C@H](C)NC(=O)C(C)(C)NC(=O)[C@H](CCC(N)=O)NC(=O)[C@H](C)NC(=O)[C@H](CCCCNC(=O)COCCOCCNC(=O)COCCOCCNC(=O)CC[C@H](NC(=O)CCCCCCCCCCCCCCCCCCC(=O)O)C(=O)O)NC(=O)[C@H](CCCCN)NC(=O)[C@H](CC(=O)O)NC(=O)[C@H](CC(C)C)NC(=O)[C@](C)(CC(C)C)NC(=O)[C@@H](NC(=O)[C@H](CO)NC(=O)[C@H](Cc1ccc(O)cc1)NC(=O)[C@H](CC(=O)O)NC(=O)[C@H](CO)NC(=O)[C@@H](NC(=O)[C@](C)(Cc1ccccc1)NC(=O)[C@@H](NC(=O)CNC(=O)[C@H](CCC(=O)O)NC(=O)C(C)(C)NC(=O)[C@@H](N)Cc1ccc(O)cc1)[C@@H](C)O)[C@@H](C)O)[C@@H](C)CC)[C@@H](C)CC)C(=O)N[C@@H](CCC(=O)O)C(=O)NCC(=O)NCC(N)=O` [Example 99] (H-Y[Aib]EGT[αMeF]TSDYSI[αMeL]LDKK([AEEA-AEEA-γGlu-C20 diacid])AQ[Aib]AFIEYLIEGG-NH2) were 23.6 nM, 0.027 nM, 1.15 nM, 0.0986 nM and 0.0643 nM.
Take `CC[C@H](C)[C@H](NC(=O)[C@H](CC(C)C)NC(=O)[C@H](Cc1ccc(O)cc1)NC(=O)[C@H](CCC(=O)O)NC(=O)[C@@H](NC(=O)[C@H](Cc1ccccc1)NC(=O)[C@H](C)NC(=O)C(C)(C)NC(=O)[C@H](CCC(N)=O)NC(=O)[C@H](C)NC(=O)[C@H](CCCCNC(=O)COCCOCCNC(=O)COCCOCCNC(=O)CC[C@H](NC(=O)CCCCCCCCCCCCCCCCCCC(=O)O)C(=O)O)NC(=O)[C@H](CCC(=O)O)NC(=O)[C@H](CC(=O)O)NC(=O)[C@H](CC(C)C)NC(=O)[C@](C)(CC(C)C)NC(=O)[C@@H](NC(=O)[C@H](CO)NC(=O)[C@H](Cc1ccc(O)cc1)NC(=O)[C@H](CC(=O)O)NC(=O)[C@H](CO)NC(=O)[C@@H](NC(=O)[C@](C)(Cc1ccccc1)NC(=O)[C@@H](NC(=O)CNC(=O)[C@H](CCC(=O)O)NC(=O)C(C)(C)NC(=O)[C@@H](N)Cc1ccc(O)cc1)[C@@H](C)O)[C@@H](C)O)[C@@H](C)CC)[C@@H](C)CC)C(=O)N[C@@H](CCC(=O)O)C(=O)NCC(=O)NCC(N)=O` [Example 100] (H-Y[Aib]EGT[αMeF]TSDYSI[αMeL]LDEK([AEEA-AEEA-γGlu-C20 diacid])AQ[Aib]AFIEYLIEGG-NH2; N-terminus assumed): the Ki in test [1] came to 44 nM; in test [2], 0.115 nM; in test [5], 4.13 nM. In addition, the half-maximal effective concentration (EC50) in test [3] worked out at 0.079 nM; in test [4], 0.12 nM.
Taken in the same sequence, the figures for `CC[C@H](C)[C@H](NC(=O)[C@H](CC(C)C)NC(=O)[C@H](Cc1ccc(O)cc1)NC(=O)[C@H](CCC(=O)O)NC(=O)[C@@H](NC(=O)[C@H](Cc1ccccc1)NC(=O)[C@H](C)NC(=O)C(C)(C)NC(=O)[C@H](CCC(N)=O)NC(=O)[C@H](C)NC(=O)[C@H](CCCCNC(=O)COCCOCCNC(=O)COCCOCCNC(=O)CC[C@H](NC(=O)CCCCCCCCCCCCCCCCCCC(=O)O)C(=O)O)NC(=O)[C@H](CCC(=O)O)NC(=O)[C@H](CC(=O)O)NC(=O)[C@H](CC(C)C)NC(=O)C(C)(C)NC(=O)[C@@H](NC(=O)[C@H](CO)NC(=O)[C@H](Cc1ccc(O)cc1)NC(=O)[C@H](CC(=O)O)NC(=O)[C@H](CO)NC(=O)[C@@H](NC(=O)[C@](C)(Cc1ccccc1F)NC(=O)[C@@H](NC(=O)CNC(=O)[C@H](CCC(=O)O)NC(=O)C(C)(C)NC(=O)[C@@H](N)Cc1ccc(O)cc1)[C@@H](C)O)[C@@H](C)O)[C@@H](C)CC)[C@@H](C)CC)C(=O)N[C@@H](CCC(=O)O)C(=O)NCC(=O)NCC(N)=O` [Example 101] (H-Y[Aib]EGT[αMePhe(2-F)]TSDYSI[Aib]LDEK([AEEA-AEEA-γGlu-C20 diacid])AQ[Aib]AFIEYLIEGG-NH2) were 117 nM, 0.0953 nM, 8.1 nM, 0.0579 nM and 0.0704 nM.
Taken in the same sequence, the figures for `CC[C@H](C)[C@H](NC(=O)[C@H](CC(C)C)NC(=O)[C@H](Cc1ccc(O)cc1)NC(=O)[C@H](CCC(=O)O)NC(=O)[C@@H](NC(=O)[C@H](Cc1ccccc1)NC(=O)[C@H](CCC(=O)O)NC(=O)C(C)(C)NC(=O)[C@H](CCC(N)=O)NC(=O)[C@H](C)NC(=O)[C@H](CCCCNC(=O)COCCOCCNC(=O)COCCOCCNC(=O)CC[C@H](NC(=O)CCCCCCCCCCCCCCCCCCC(=O)O)C(=O)O)NC(=O)[C@H](CCC(=O)O)NC(=O)[C@H](CC(=O)O)NC(=O)[C@H](CC(C)C)NC(=O)[C@](C)(CC(C)C)NC(=O)[C@@H](NC(=O)[C@H](CO)NC(=O)[C@H](Cc1ccc(O)cc1)NC(=O)[C@H](CC(=O)O)NC(=O)[C@H](CO)NC(=O)[C@@H](NC(=O)[C@](C)(Cc1ccccc1F)NC(=O)[C@@H](NC(=O)CNC(=O)[C@H](CCC(=O)O)NC(=O)C(C)(C)NC(=O)[C@@H](N)Cc1ccc(O)cc1)[C@@H](C)O)[C@@H](C)O)[C@@H](C)CC)[C@@H](C)CC)C(=O)N[C@@H](CCC(=O)O)C(=O)NCC(=O)NCC(N)=O` [Example 103] (H-Y[Aib]EGT[αMePhe(2-F)]TSDYSI[αMeL]LDEK([AEEA-AEEA-γGlu-C20 diacid])AQ[Aib]EFIEYLIEGG-NH2; N-terminus assumed) were 40.3 nM, 0.0645 nM, 6.68 nM, 0.101 nM and 0.0693 nM.

These data come from patent US12252524B2, “GIP/GLP1 co-agonist compounds” (Eli Lilly and Company, priority 2018, dated 2025).
